From article PMC8778187, “A New Oxygen Containing Pyclen-Type Ligand as a Manganese(II) Binder for MRI and ^52Mn PET Applications: Equilibrium, Kinetic, Relaxometric, Structural and Radiochemical Studies” (Molecules, 2022) come the findings set out here.

Data set [1] can be described thus: Stability and protonation constants and pMn of Mn(II) complexes by pH-potentiometry. It counts as physicochemical. Here is the method:
The stability and protonation constants of the metal complexes formed with H2OPC2A were determined by pH-potentiometric titrations, but, for the Cu(II) complex, UV-Vis spectrophotometric measurements were also carried out to supplement the pH-potentiometric titration data (Figures S21 and S22, Supporting Information).
The validity of the equilibrium model used for the fitting of the pH-potentiometric titration data for the Mn(II) system, was supported by ^1H relaxometric measurements, when 1/T1 and 1/T2 relaxation rates were determined as a function of pH, and their trends were compared to the species distribution curves calculated by using the equilibrium constants determined by pH-potentiometry (Table 3). The equilibrium for all metal ions can be described by considering the formation of only ([M(L)]) and monoprotonated ([M(HL)]) complexes (Table 3). However, for the Mn(II), Cu(II), and Zn(II) ions, the formation of ternary hydroxido species ([M(L)(OH)]) was also considered. A comparison of the pH-relaxation rate profiles normalized to 1 mM with the species distribution curves, confirmed that the equilibrium model applied for the fitting of pH-potentiometric titration data, satisfactorily described the Mn(II) system. […] The formation of the [Mn(3,9-OPC2A)] complex was also confirmed by analytical HPLC at pH 7.0 relying on the different retention times of the ligand and the complex (the difference is more than 2 min (Figures S20 and S23)).
The stability constants of the complexes are summarized and compared to those of the chelates formed with H21,7-DO2A, H21,4-DO2A, H23,6-PC2A, H23,9-PC2A, and H21,7-O2DO2A, in Table 3. H23,9-OPC2A forms considerably weaker complexes with all the metal ions involved in the study, than H23,9-PC2A, H23,6-PC2A, H21,7-DO2A, and H21,4-DO2A chelators. […] A similar trend in the stability constants can be observed, when the stability of the structurally related ligands is compared (H23,9-PC2A vs. H21,7-DO2A and, at a somewhat lesser extent, in the case of H23,6-PC2A vs. H21,4-DO2A ligands). […] Therefore, we have calculated the pMn values (pMn = −log(Mn(II)free) for the Mn complexes, by using the conditions proposed by É. Tóth and coworkers (cMn^2+ = cligand = 1 × 10^−5 M, T = 25 °C, pH = 7.4). As it is seen from the data presented in Table 3, the value characteristic for the [Mn(3,9-OPC2A)] complex is as high (pMn = 8.69) as it is for the [Mn(3,9-PC2A)] chelate (despite its lower stability constant), which is, in fact, the highest known value for a monoaquated macrocyclic Mn(II) complex (pMn = 8.64). This means that more than 99,97% of the total Mn(II) in the system is chelated by the H23,9-OPC2A ligand near pH = 7.4 in equilibrium.
Metal stock solutions were prepared from the highest analytical grade chemicals, and their concentrations were determined by complexometric titration with standardized Na2H2EDTA and eriochrome black T indicator in the presence of ascorbic acid, and potassium hydrogen tartrate for MnCl2, murexide indicator for CaCl2 and CuCl2, eriochrome black T for MgCl2 and xylenol orange in the presence of hexamethylenetetramine for the solution of ZnCl2. The concentration of the ligand stock solution was determined by pH-potentiometric titrations. The protonation constants of the ligand were determined by the pH potentiometric titrations with 0.15 M NaOH, using 0.0025 M ligand solutions. The ionic strength was set to 0.15 M by using NaCl. […]

Data set [2] in a line: 1H relaxometry: r1p and r2p relaxivity of Mn(II) complexes. It counts as physicochemical. The note with it: for r1p / r2p: Mn(II) complex, pH = 7.4. Here is the method: The relaxivity of Mn(II) complexes is one of the most important parameters that directly correlates with its MRI efficacy. Relaxivity is defined as the longitudinal (r1p) and transverse (r2p) water proton relaxation rate enhancement, provided by 1.0 mM concentration of the paramagnetic species. The relaxivity (r1p and r2p) of the Mn(II) complexes were determined using relaxometers operating at 0.49 T and 1.41 T field strength, in a HEPES buffer (I = 0.15 M NaCl) at different temperatures from the slopes of plots 1/T1,2 vs. (Mn(II)) for 4 concentrations of Mn(II) (data shown in Supporting Information Figures S24 and S25), and they are compared in Table 4.
The ^1H longitudinal (T1) and transverse (T2) relaxation times were measured by using Bruker Minispec MQ-20 and MQ-60 NMR analyzers (Bruker corporation, Billerica, MA, USA). The temperature of the sample holder was set at 25.0 or 37 (±0.2) °C, and controlled with a circulating water bath thermostat. The T1 values of the samples were determined by means of the inversion recovery method (180°–τ–90°), averaging 4–6 data points obtained at 12 different τ delay times, while T2 data were collected by using the Carl–Purcell–Meiboom–Gill (CPMG) spin-echo pulse sequence. Relaxivities were determined by published procedures (from the slopes of the plots of 1/T1,2 vs. (Mn(II)) for 4 concentrations of Mn(II)), in samples of 0.3–0.4 mL volume (data shown in Figures S24 and S25, Supplementary Information). The pH were set by either using a 0.05 M 4-(2-hydroxyethyl)-1-piperazine-ethanesulfonic acid (HEPES) buffer (pH = 7.4) or monitored (pH profiles) using a Metrohm 827 pH lab pH meter and a Metrohm 6.0234.100 combined electrode, in the pH range of 1.75–11.8.

Setting [3] is: Mn^2+ complex, T = 25 °C, I = 0.15 M NaCl.

In the case of `O=C(O)CN1CCOCCN(CC(=O)O)Cc2cccc(n2)C1` [H23,9-OPC2A, 6-Oxa-3,9,15-triazabicyclo(9.3.1)pentadeca-1(15),11,13-triene-3,9-diacetic acid], the “log KMnHL” value in data set [1] (setting [3]) is recorded as 2.40(2). Also, the “log KMnL” value in data set [1] (setting [3]) is recorded as 13.03(1). The “log KMnLOH” value in data set [1] (setting [3]) is 11.49(1). In data set [1] (near pH = 7.4, pMn conditions), the “total Mn(II) chelated by the ligand in equilibrium” value is recorded as “more than 99,97%”. This compound displayed a pMn in data set [1] (pMn = −log(Mn(II)free), cMn^2+ = cligand = 1 × 10^−5 M, T = 25 °C, pH = 7.4) of 8.69. Moreover, the r1p in data set [2] (0.49 T, 25 °C) is reported as 3.13(2) mM^−1s^−1; in data set [2] (0.49 T, 37 °C) it was 2.54(1) mM^−1s^−1; in data set [2] (1.41 T, 25 °C) it was 2.72(2) mM^−1s^−1; in data set [2] (1.41 T, 37 °C) it was 2.06(1) mM^−1s^−1. The r2p in data set [2] (0.49 T, 25 °C) is recorded as 5.15(3) mM^−1s^−1; in data set [2] (0.49 T, 37 °C), 4.17(4) mM^−1s^−1; in data set [2] (1.41 T, 25 °C), 9.90(5) mM^−1s^−1; in data set [2] (1.41 T, 37 °C), 7.37(3) mM^−1s^−1.

With `O=C([O-])CN1CCOCCN(CC(=O)[O-])Cc2cccc(n2)C1.[Mn+2]` [[Mn(3,9-OPC2A)]], the “r1p in pure aqueous solution” value in data set [2] (1.41 T, 25 °C) came to 2.70 mM⁻¹ s⁻¹. Besides, the “r1p near pH = 1.8” value in data set [2] (1.41 T, 25 °C, complex protonated and dissociated at low pH) is reported as 6.51 mM^−1s^−1.
